Measurements reported in patent US11860166B2 (KOREA INSTITUTE OF SCIENCE AND TECHNOLOGY, priority 2019, dated 2024).

System: dopamine receptor D1
Conditions: co-imaging, quinpirole first, then SKF38393, FIG. 5A
Procedure: To minimize a photobleaching phenomenon, the live fluorescence microscope was set. When stimulated with light at a wavelength of 560 nm in the live fluorescence microscope, intensity at a cpRFP fluorescence wavelength of 610 nm was measured.
To induce fluorescence intensity suitable for experiments, 50 msec exposure and ND16 intensity were maintained. The fluorescence cycle was performed for total 10 minutes by measuring cpRFP images for 1 minute using the fluorescence microscope.
The saved images were analyzed using an NIS program (Nikon). cpRFP fluorescence intensity of the entire single cells in the regions of interest (ROI) was analyzed in the NIS program.

For `Oc1cc2c(cc1O)C(c1ccccc1)CNCC2` (stereo not shown) [SKF38393], the “fluorescence of red biosensor DRD1 Red 1.3 on ligand treatment” value was “increase in fluorescence by selective response”.
